Test results: publication PMC7066191, “Exploiting loss of heterozygosity for allele-selective colorectal cancer chemotherapy” (Nature Communications, 2020)

What was measured:
Experiment in all cases: biochemical
Design in all cases: scanMAX competition binding; kinase recovered on immobilized ligand quantified by qPCR, per cent of control
Conditions in all cases: read-out: APA (POC)
CDKL2 = CDKL2 (Homo sapiens, UniProt Q92772)
Description: (§1) The binding affinities of APA and NAPA were evaluated in the scanMAX^sm Kinase Assay Panel (DiscoverX) at a final concentration of 10 µM. The compounds were tested for steric or allosteric binding to kinases in solution. The kinase was captured from the solution through an immobilized kinase-specific ligand and the kinase recovery was quantified. The amount of recovered kinase in the presence or absence of APA or NAPA was measured by quantitative PCR compared with the kinase capture in absence of the compound. Any compound reducing the binding affinity of a kinase to the respective immobilized ligand was scored as a potential hit, and the binding affinity of the compound toward a kinase is interpreted as the difference between the kinase recovery in the absence and presence of the compound. The inhibitory binding constants (Kd) of APA and NAPA to AURKA were evaluated in a KdELECT Kinase Assay (DiscoverX). […] Data acquisition followed the same methodology as for the scanMAX^sm Kinase Assay Panel. 6 Supplementary Figure 4. Kinome inhibition profiles of APA and its NAT2 metabolite NAPA identifies preferential APA kinase targets and differential binding to AURKA a The human kinome was assessed for binding affinity to APA and NAPA at 10 µM concentration (468 kinases in the scanMAX Kinase Assay Panel, DiscoverX). The family stratification of kinases is shown as a cladogram. Circles visualize the binding affinity of NAPA and APA towards each kinase with a higher intensity of blue corresponding to a higher binding affinity. […] One single data point from one experiment at a concentration 18.5 µM of APA was excluded as an outlier. c Thermal shift assay for human recombinant AURKA in the presence of APA and the selective inhibitor S1451. Melting temperatures were obtained by calculating the first derivative of the tryptophan fluorescence ratio at 350 nm and 330 nm and are shown for AURKA in the presence of S1451 (blue) and APA (yellow). Structural similarities between APA and kinase inhibitors[27] prompted investigation of protein kinases as mediators of APA toxicity. […] To enrich for kinase interactions that could explain the preferential killing of slow NAT2 cells, we compared the binding affinity of each kinase with APA and NAPA, selected 44 targets with preferential binding to APA and excluded kinases non-essential for cell survival and those not expressed in CRC cells (Supplementary Fig. 4A, Supplementary Table 4). […] The growth inhibition of RKO and DLD-1 following siRNA-mediated AURKA knockdown (Figs. 3c, d) reflected the relative efficiency of protein downregulation (Supplementary Fig. 5C, D). […] (Supplementary Fig. 4C). AURKA regulates cell cycle progression through association with other centrosome and spindle-associated proteins. Its activation requires auto-phosphorylation at Thr288 and ensures spindle pole integrity, centrosome duplication as well as adequate chromosomal alignment and segregation, while its inhibition leads to multipolar spindles with acentrosomal poles[28],[31]. […] S1451 reduced the fraction of pAURKA levels by >90% regardless of NAT2 expression (Fig. 3f and Su

TNIK = TNIK (Homo sapiens, UniProt Q9UKE5)
Description: as §1

PIP4K2B = PIP4K2B (Homo sapiens, UniProt P78356)
Description: as §1

FLT1 = FLT1 (Homo sapiens, UniProt P17948)
Description: as §1

CLK4 = CLK4 (Homo sapiens, UniProt Q9HAZ1)
Description: as §1

ZAK = biological target: T1, ZAK (Homo sapiens, UniProt Q9NYL2)
T1 construct: gene MAP3K20
T1 sequence (Q9NYL2 whole entry): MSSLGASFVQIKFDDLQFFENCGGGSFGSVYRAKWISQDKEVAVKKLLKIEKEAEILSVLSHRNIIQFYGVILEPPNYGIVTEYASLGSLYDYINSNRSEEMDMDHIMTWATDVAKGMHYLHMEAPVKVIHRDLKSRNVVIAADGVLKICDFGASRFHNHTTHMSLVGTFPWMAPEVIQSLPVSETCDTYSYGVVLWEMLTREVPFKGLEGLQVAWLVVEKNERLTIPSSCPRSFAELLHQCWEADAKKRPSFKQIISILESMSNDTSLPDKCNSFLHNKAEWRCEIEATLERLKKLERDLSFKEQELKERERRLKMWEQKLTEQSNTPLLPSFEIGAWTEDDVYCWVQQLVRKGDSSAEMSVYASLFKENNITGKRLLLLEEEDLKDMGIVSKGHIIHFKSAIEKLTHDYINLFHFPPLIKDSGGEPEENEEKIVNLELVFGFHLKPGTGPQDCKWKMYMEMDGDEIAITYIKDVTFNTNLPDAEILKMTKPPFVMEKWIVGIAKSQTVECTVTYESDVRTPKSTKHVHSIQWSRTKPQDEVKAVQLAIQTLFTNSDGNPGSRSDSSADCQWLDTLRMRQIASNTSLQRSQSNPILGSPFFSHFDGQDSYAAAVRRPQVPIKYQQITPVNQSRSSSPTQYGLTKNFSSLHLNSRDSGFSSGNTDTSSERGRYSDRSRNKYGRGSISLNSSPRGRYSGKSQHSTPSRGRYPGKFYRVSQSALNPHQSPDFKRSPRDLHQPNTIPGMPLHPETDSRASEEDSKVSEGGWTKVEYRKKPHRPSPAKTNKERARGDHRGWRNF
Description: as §1

CLK2 = CLK2 (Homo sapiens, UniProt P49760)
Sequence of CLK2 (P49760 whole entry): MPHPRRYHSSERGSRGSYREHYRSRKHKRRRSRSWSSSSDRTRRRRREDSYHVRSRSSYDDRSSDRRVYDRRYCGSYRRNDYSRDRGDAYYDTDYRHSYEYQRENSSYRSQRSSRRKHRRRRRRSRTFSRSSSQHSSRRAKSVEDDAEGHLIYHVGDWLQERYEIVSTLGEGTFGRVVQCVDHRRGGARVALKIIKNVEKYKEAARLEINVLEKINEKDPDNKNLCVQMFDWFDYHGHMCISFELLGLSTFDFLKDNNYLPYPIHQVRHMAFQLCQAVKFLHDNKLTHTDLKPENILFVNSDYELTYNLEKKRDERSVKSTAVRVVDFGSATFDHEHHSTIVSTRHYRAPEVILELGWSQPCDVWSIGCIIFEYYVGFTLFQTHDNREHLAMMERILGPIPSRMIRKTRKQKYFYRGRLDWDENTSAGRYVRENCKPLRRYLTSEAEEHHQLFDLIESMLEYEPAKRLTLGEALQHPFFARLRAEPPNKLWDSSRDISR
Description: as §1

HIPK4 = HIPK4 (Homo sapiens, UniProt Q8NE63)
Sequence of HIPK4 (Q8NE63 whole entry): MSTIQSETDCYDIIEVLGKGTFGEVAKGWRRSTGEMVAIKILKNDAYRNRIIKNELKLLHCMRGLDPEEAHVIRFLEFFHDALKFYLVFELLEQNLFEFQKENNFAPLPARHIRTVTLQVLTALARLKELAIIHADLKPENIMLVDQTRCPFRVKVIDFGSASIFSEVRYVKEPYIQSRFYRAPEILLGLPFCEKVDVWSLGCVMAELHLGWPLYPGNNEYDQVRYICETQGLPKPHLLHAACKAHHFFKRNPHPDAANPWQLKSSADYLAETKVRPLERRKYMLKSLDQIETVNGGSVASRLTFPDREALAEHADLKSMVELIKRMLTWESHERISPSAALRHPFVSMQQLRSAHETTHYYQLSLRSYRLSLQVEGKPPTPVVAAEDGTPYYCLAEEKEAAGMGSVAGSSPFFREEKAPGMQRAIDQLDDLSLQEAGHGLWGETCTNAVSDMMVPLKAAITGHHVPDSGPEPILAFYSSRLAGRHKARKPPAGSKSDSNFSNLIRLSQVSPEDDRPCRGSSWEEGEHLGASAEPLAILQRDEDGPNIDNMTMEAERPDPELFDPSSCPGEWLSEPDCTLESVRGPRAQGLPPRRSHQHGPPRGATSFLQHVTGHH
Description: as §1

NTRK3 = NTRK3 (Homo sapiens, UniProt Q16288)
Sequence of NTRK3 (Q16288 whole entry): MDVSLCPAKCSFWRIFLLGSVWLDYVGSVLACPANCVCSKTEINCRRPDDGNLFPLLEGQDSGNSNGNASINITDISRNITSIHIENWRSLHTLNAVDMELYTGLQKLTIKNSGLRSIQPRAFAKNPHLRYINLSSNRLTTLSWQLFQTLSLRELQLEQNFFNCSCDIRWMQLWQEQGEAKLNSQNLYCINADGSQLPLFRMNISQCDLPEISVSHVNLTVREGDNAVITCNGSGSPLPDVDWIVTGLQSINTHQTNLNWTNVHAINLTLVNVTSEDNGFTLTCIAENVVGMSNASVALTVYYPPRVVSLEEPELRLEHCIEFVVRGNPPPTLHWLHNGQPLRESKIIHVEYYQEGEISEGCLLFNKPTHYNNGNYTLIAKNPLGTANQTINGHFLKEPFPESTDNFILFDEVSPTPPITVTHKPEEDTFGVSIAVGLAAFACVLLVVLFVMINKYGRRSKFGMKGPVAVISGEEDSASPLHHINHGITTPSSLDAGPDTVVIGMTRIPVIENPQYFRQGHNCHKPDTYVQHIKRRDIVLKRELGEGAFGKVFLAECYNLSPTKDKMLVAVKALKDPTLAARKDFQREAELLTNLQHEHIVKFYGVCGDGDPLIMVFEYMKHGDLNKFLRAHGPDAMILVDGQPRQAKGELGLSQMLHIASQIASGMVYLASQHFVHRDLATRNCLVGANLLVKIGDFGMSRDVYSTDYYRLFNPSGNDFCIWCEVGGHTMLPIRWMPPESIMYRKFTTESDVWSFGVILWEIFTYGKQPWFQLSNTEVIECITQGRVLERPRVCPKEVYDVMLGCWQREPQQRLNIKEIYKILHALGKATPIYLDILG
Description: as §1

ABL2 = ABL2 (Homo sapiens, UniProt P42684)
Description: as §1

RPS6KA1_Dom1 = biological target: T2, RPS6KA1_Dom1 (Homo sapiens, UniProt Q15418)
T2 construct: gene RPS6KA1; Kin.Dom.1 N-terminal
T2 sequence (Q15418 whole entry): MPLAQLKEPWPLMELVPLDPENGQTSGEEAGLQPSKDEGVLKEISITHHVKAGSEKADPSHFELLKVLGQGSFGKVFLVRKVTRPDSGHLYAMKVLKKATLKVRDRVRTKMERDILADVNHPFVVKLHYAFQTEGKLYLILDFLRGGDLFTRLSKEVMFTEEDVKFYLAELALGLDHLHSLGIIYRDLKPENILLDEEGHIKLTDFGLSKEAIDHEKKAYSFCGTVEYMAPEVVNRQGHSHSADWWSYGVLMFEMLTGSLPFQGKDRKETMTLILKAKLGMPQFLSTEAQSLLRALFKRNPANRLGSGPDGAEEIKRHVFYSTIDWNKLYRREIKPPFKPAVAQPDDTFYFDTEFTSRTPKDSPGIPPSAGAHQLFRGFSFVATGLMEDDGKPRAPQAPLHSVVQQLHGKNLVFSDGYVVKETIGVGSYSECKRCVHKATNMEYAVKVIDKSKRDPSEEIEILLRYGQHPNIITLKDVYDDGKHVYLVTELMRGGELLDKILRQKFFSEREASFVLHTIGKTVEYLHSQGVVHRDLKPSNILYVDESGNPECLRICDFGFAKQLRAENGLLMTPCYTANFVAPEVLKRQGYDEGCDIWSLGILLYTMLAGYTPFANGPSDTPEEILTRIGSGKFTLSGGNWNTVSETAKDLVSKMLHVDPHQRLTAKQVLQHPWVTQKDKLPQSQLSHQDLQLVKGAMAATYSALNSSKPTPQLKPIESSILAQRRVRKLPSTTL
Description: as §1

CDK7 = CDK7 (Homo sapiens, UniProt P50613)
Sequence of CDK7 (P50613 whole entry): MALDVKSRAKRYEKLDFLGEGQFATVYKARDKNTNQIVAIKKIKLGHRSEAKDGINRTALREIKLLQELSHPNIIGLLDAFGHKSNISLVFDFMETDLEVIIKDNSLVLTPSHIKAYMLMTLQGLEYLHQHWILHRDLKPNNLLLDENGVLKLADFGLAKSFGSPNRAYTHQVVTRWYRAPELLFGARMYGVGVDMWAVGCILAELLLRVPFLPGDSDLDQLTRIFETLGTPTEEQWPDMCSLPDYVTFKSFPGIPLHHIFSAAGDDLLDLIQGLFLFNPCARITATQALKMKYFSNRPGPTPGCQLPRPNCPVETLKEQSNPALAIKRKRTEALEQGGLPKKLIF
Description: as §1

RIOK3 = RIOK3 (Homo sapiens, UniProt O14730)
Sequence of RIOK3 (O14730 whole entry): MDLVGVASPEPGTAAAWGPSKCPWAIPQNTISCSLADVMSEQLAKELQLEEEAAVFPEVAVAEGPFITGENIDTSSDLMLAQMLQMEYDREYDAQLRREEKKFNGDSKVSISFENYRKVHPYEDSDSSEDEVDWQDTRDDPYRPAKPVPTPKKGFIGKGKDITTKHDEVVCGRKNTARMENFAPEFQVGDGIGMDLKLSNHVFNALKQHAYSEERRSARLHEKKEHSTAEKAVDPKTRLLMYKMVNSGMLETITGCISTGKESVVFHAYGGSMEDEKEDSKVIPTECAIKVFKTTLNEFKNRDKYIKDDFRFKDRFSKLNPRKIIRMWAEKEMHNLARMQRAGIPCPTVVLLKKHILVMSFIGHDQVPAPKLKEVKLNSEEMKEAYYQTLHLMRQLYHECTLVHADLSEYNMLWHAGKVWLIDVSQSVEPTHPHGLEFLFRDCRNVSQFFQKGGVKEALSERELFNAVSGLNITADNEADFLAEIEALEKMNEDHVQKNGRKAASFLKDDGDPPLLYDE
Description: as §1

HIPK3 = HIPK3 (Homo sapiens, UniProt Q9H422)
Description: as §1

JAK3_JH1 = biological target: T3, JAK3_JH1 (Homo sapiens, UniProt P52333)
T3 construct: gene JAK3; JH1 domain
Description: as §1

Sequence of CDKL2 (Q92772 whole entry): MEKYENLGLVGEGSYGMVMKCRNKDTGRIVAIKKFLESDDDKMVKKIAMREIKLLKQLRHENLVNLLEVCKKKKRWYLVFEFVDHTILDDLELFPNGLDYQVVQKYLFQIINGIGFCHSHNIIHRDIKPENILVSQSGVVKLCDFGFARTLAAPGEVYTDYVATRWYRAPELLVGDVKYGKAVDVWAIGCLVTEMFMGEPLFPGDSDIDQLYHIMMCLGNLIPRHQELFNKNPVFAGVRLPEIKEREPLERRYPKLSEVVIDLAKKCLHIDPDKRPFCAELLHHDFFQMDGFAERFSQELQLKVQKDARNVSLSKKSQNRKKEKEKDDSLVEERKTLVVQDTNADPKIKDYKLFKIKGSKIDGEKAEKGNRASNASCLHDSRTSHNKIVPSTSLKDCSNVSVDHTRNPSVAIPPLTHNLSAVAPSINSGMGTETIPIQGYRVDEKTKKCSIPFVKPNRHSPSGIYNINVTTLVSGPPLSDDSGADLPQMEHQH

Structure (SMILES): COc1cc(Nc2cncc(-c3ccc(N)cc3)n2)cc(OC)c1OC [APA, 6-(4-aminophenyl)-N-(3,4,5-trimethoxyphenyl)pyrazin-2-amine]
- remaining binding at 10 µM (CDKL2): 42%
- remaining binding at 10 µM (TNIK): 39%
- remaining binding at 10 µM (PIP4K2B): 20%
- remaining binding at 10 µM (FLT1): 36%
- remaining binding at 10 µM (CLK4): 27%
- remaining binding at 10 µM (ZAK): 22%
- remaining binding at 10 µM (CLK2): 27%
- remaining binding at 10 µM (HIPK4): 10%
- remaining binding at 10 µM (NTRK3): 11%
- remaining binding at 10 µM (ABL2): 14%
- remaining binding at 10 µM (RPS6KA1_Dom1): 56%
- remaining binding at 10 µM (CDK7): 49%
- remaining binding at 10 µM (RIOK3): 21%
- remaining binding at 10 µM (HIPK3): 42%
- remaining binding at 10 µM (JAK3_JH1): 19%
